The source of these data is patent publication US9085576B2 (AMGEN INC., priority 2013, dated 2015).

The target of data set [1] is Beta Secretase enzyme (BACE) (Homo sapiens (Human), UniProt P56817). As to the kind of experiment: In vitro enzymatic BACE FRET assay. The format is biochemical. Conditions: read-out: BACE1 Enzyme assay IC50.
For the next data set, the target named is Cathepsin D (Cat D) (Homo sapiens (Human), UniProt P07339). As to the kind of experiment: In vitro enzymatic Cathepsin D (Cat D) FRET assay. The format is biochemical. As to conditions: read-out: CatD IC50.
Chain of Cathepsin D (Cat D) (P07339 65-412, species assumed): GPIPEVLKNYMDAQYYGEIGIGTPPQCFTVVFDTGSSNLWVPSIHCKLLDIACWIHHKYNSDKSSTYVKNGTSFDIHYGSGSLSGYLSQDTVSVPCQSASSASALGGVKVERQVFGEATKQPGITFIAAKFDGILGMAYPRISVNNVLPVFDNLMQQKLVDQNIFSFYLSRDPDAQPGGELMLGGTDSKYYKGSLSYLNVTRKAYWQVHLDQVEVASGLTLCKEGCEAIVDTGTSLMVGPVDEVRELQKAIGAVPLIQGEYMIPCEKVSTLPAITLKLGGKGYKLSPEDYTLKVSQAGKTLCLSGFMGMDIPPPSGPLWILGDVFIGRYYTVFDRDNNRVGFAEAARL
The subject of a further data set is Abeta 40. As to the kind of experiment: In vivo inhibition of beta-secretase: Abeta 40 reduction in CSF and brain of the rat. Conditions: 10 mpk, after 4 hrs; for % reduction of rat CSF levels at 10 pmk: Abeta 40 in rat CSF; for % reduction of rat brain levels at 10 mpk: Abeta 40 in rat brain.
The target in another data set is BACE (Homo sapiens (Human), UniProt P56817). As to the kind of experiment: In vitro BACE cell-based assay (Aβ40 in conditioned medium, sandwich ELISA). (In general: ELISA stands for enzyme-linked immunosorbent assay.)
Chain of BACE (P56817 46-501, species assumed): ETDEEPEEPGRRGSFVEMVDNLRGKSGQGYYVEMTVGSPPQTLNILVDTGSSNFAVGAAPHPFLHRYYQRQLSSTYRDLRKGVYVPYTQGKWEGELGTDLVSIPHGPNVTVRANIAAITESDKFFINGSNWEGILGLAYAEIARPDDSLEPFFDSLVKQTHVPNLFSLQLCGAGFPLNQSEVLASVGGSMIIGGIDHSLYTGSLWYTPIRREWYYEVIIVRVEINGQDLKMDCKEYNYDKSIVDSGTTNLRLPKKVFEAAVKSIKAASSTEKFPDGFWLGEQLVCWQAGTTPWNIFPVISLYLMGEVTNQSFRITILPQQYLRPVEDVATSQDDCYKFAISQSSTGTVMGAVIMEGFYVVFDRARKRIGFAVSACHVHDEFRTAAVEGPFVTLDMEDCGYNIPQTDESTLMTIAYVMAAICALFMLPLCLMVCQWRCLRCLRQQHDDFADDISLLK
Data set [2] has as its target BACE1 (Homo sapiens (Human), UniProt P56817). As to conditions: cited from earlier work.
For data set [3], the system named is BACE1. As to conditions: animals, orally available; cited from earlier work.
Data set [4] has as its system pigment epithelium of the rat's eye. Conditions: higher compound dose given for three months; cited from earlier work.

Chain of BACE1 (Homo sapiens (Human), UniProt P56817) (P56817 46-501): as the sequence (P56817 46-501, species assumed) above
Chain of Beta Secretase enzyme (BACE) (P56817 46-501): as the sequence (P56817 46-501, species assumed) above
Source text for Abeta 40: In Vivo Inhibition of Beta-Secretase
Several animal models, including mouse, rat, dog, and monkey, may be used to screen for inhibition of beta-secretase activity in vivo following administration of a test compound sample. […] A separate group of animals receive 2% hydroxypropyl methylcellulose, 1% Tween80 alone, containing no test compound, and serve as a vehicle-control group. At the end of the test period, animals are sacrificed and brain tissues, plasma or cerebrospinal fluid are collected. […] Homogenates are centrifuged at 355,000 g, 4° C. for 30 minutes. CSF or brain supernatants are then analyzed for the presence of A-beta peptide by specific sandwich ELISA assays based on ECL (Electrochemiluminescence) technology. For example, rat Abeta40 is measured using biotinylated-4G8 (Signet) as a capture antibody and Fab40 (an in-house antibody specific to the C-terminal of Abeta40) as a detection antibody.
Actual vehicles used: Oral: 2% HPMC, 1% Tween80, pH 2.2

As to `COc1ccc(C(=O)Nc2cc(C)c(F)c([C@@]3(C(F)F)N=C(N)O[C@@H]4C[C@@H]43)c2)nc1` [Example 304, N-(3-((1R,5S,6R)-3-amino-5-(difluoromethyl)-2-oxa-4-azabicyclo[4.1.0]hept-3-en-5-yl)-4-fluoro-5-methylphenyl)-5-methoxypicolinamide], the IC50 in data set [1] stood at 0.0522 µM; on Cathepsin D (Cat D), 355 µM; against BACE, 0.0359 µM. The “% reduction of rat CSF levels at 10 pmk” value with Abeta 40 is listed as 41%. Also, the “% reduction of rat brain levels at 10 mpk” value (“% reduction … at 10 mpk” below) in the data set with Abeta 40 was 20%.
Taken in the same sequence, the figures for `COc1cnc(C(=O)Nc2ccc(F)c([C@@]3(C(F)F)N=C(N)O[C@@H]4C[C@@H]43)c2)c(F)c1` [Example 306, N-(3-((1R,5S,6R)-3-amino-5-(difluoromethyl)-2-oxa-4-azabicyclo[4.1.0]hept-3-en-5-yl)-4-fluorophenyl)-3-fluoro-5-methoxypicolinamide] were 0.0419 µM, 1040 µM, 0.0256 µM, 13% and −1%.
In the case of `NC1=N[C@@](c2cc(NC(=O)c3ccc(OC(F)F)cn3)ccc2F)(C(F)F)[C@H]2C[C@H]2O1` [Example 312, N-(3-((1R,5S,6R)-3-amino-5-(difluoromethyl)-2-oxa-4-azabicyclo[4.1.0]hept-3-en-5-yl)-4-fluorophenyl)-5-(difluoromethoxy) picolinamide], the half-maximal inhibitory concentration (IC50) stood at 0.0377 µM in data set [1], 442 µM at Cathepsin D (Cat D) and 0.0179 µM at BACE. Besides, in the data set on Abeta 40, the “% reduction of rat CSF levels at 10 pmk” value is reported as 30%. Moreover, the “% reduction … at 10 mpk” value with Abeta 40 is −1%.
With `N#Cc1cnc(C(=O)Nc2ccc(F)c([C@@]3(C(F)F)N=C(N)O[C@@H]4C[C@@H]43)c2)c(F)c1` [Example 388, N-(3-((1R,5S,6R)-3-amino-5-(difluoromethyl)-2-oxa-4-azabicyclo[4.1.0]hept-3-en-5-yl)-4-fluorophenyl)-5-cyano-3-fluoropicolinamide], the IC50 in data set [1] was determined as 0.0352 µM; at Cathepsin D (Cat D) it was 1270 µM; against BACE it was 0.0069 µM. Besides, in the data set on Abeta 40, the “% reduction of rat CSF levels at 10 pmk” value amounted to 21%. The “% reduction … at 10 mpk” value with Abeta 40 came to 4%.
Taken in the same sequence, the figures for `COCc1cc(C#N)cnc1C(=O)Nc1ccc(F)c([C@@]2(C(F)F)N=C(N)O[C@@H]3C[C@@H]32)c1` [Example 391, N-(3-((1R,5S,6R)-3-amino-5-(difluoromethyl)-2-oxa-4-azabicyclo[4.1.0]hept-3-en-5-yl)-4-fluorophenyl)-5-cyano-3-(methoxymethyl)picolinamide] were 0.0116 µM, 1350 µM, 0.0175 µM, 54% and 24%.
Taken in the same sequence, the figures for `NC1=N[C@@](c2cc(NC(=O)c3cnc(OCC4CC4)cn3)ccc2F)(C(F)F)[C@H]2C[C@H]2O1` [Example 415, N-(3-((1R,5S,6R)-3-amino-5-(difluoromethyl)-2-oxa-4-azabicyclo[4.1.0]hept-3-en-5-yl)-4-fluorophenyl)-5-(cyclopropylmethoxy)pyrazine-2-carboxamide] were 0.043 µM, 747 µM, 0.0551 µM, 27% and 14%.
For the compound `NC1=N[C@@](c2cc(NC(=O)c3ncc(Cl)cc3CO)ccc2F)(C(F)F)[C@H]2C[C@H]2O1` [Example 419, N-(3-((1R,5S,6R)-3-amino-5-(difluoromethyl)-2-oxa-4-azabicyclo-[4.1.0]hept-3-en-5-yl)-4-fluorophenyl)-5-chloro-3-(hydroxymethyl)picolinamide], the figures for the IC50 (in data set [1]; at Cathepsin D (Cat D); against BACE) were 0.0332 µM, 276 µM and 0.0293 µM, respectively. The “% reduction of rat CSF levels at 10 pmk” value with Abeta 40 was 57%. Besides, the “% reduction … at 10 mpk” value in the data set with Abeta 40 worked out at 42%.
Regarding `C[C@@]1(c2cc(-c3cncnc3)c(F)cc2F)CCSC(N)=N1` [LY2811376, (S)-4-(2,4-difluoro-5-pyrimidin-5-yl-phenyl)-4-methyl-5,6-dihydro-4H-[1,3]thiazin-2-ylamine], on BACE1 [2] (healthy volunteers, oral dosing of 30 or 90 mg), the “Aβ reductions in lumbar CSF” value is “Prominent and long-lasting Aβ reductions”. In addition, on BACE1 [2] (healthy volunteers), the safety and tolerability result is “safe and well tolerated”. Further, in the data set with BACE1 [3], the Aβ-lowering effects entry was “profound Aβ-lowering effects”.
Take `C[C@@]1(c2cc(-c3cncnc3)c(F)cc2F)CCSC(N)=N1` [LY 2811376]: the eye assessments entry at BACE1 [2] (people of the terminated Ph I dosing trial) is “did not show any abnormalities”. The eye toxicity finding entry in data set [4] is given as “damaged the pigment epithelium of the rat's eye”.

For orientation: IC50 means the concentration that gives 50% inhibition.
